From paper PMC9569954, “The Antidepressant-like Activity, Effects on Recognition Memory Deficits, Bioavailability, and Safety after Chronic Administration of New Dual-Acting Small Compounds Targeting Neuropsychiatric Symptoms in Dementia” (International Journal of Molecular Sciences, 2022)
Where two headings read alike, the source gives them in different places.

Columns and labels:
rats = experiment: Forced swim test (FST); assay type: in vivo, male Wistar rats; conditions: rat; for effect on immobility in FST / Immobility time: acute 1 mg/kg i.p.; for Immobility time: 60 min before test, 5 min session, vehicle 255.9 ± 8.6
Protocol: The rats were injected for 21 consecutive days at a dose of 1 mg/kg, similar to the dose used in acute treatment, as per data presented in Supplementary Materials (Table S1). The FST was conducted according to the method of Porsolt. On the first day of the experiment, the animals were gently placed individually for 15 min in Plexiglas cylinders (40 cm high, 18 cm in diameter) containing 15 cm of water maintained at 23–25 °C. On removal from water, the rats were placed for 30 min in a Plexiglas box under a 60 W bulb to dry. On the following day (24 h later), the rats were replaced in the cylinder and the total duration of immobility was recorded during the whole 5 min test period. Immobility was assigned when no additional activity was observed other than that necessary to keep the rat’s head above the water. Fresh water was used for each animal.
FST after acute administration of the investigated compounds
Rats were injected 60 min before the test at a dose of 1 mg/kg. FST was carried out according to the method of Porsolt, and the same procedure was used for chronic treatment.
Table S1. Effect of acute treatment of PQA-AZ4, PQA-AZ6, and PQ-10 on the immobility time in the […]
Compound (mg/kg) Immobility time (s)
Compounds were injected i.p. 60 min before the test. Values represent the means ± SEM of immobility in the FST during a 5 min test session. The data were analyzed using one -way ANOVA, followed by Bonferroni‘s post hoc test; NS = nonsignificant; N=7-8.

PDE10A = system: PDE10A; set-up: method as in PMID 35248836; conditions: read-out: Inhibition PDE10A IC50; cited from earlier work
[1] = Pharmacokinetics and brain uptake after i.v. and i.g. administration; assay type: in vivo, male Wistar rats; conditions: rat; for half-life / Cmax / MRT / AUC(0-t) / C0 / clearance / bioavailability / Tmax / Kp / Vd: male, Wistar; for half-life: in vivo, elimination from body, route not stated; for bioavailability: i.g. 2 mg/kg vs i.v. 0.5 mg/kg, read-out: F (absolute bioavailability); for Kp: brain/plasma, read-out: Brain/Plasma ratio; for Vd: read-out: Vss
Text: The compounds investigated, namely, PQA-AZ4 and PQA-AZ6 (UPLC/MS purity > 95%), were synthesized at the Department of Medicinal Chemistry, Jagiellonian University Medical College (synthesis described in [10]); PQ-10, (6,7-dimethoxy-4-[(3R)-3-(2-quinoxalinyloxy)-1-pyrrolidinyl]-quinazoline, was obtained from Sigma-Aldrich (St. Louis, MO, USA). For the studies, the compounds were suspended in 1% aqueous solution of Tween 80, while (+)-MK-801 (hydrogen maleate, Sigma-Aldrich, St. Louis, MO, USA) was dissolved in distilled water. In the behavioral studies, PQA-AZ4, PQA-AZ6, and PQ-10 were injected intraperitoneally (i.p.) once a day (between 9:00 AM and 10:00 AM) for 21 consecutive days at the minimum active doses selected previously, based on acute treatment and assessment in behavioral tests at a volume of 2 mL/kg body weight. The control groups received 1% aqueous solution of Tween 80 (Sigma-Aldrich, St. Louis, MO, USA) in the same schedule. For the pharmacokinetic study, PQA-AZ4 and PQA-AZ6 dissolved in 20% captizol (Ligand, San Diego, CA, USA) were administered intravenously (i.v.) and intragastrically (i.g.) at a dose of 0.5 and 2 mg/kg, respectively, while ketamine (50 mg/kg, (hydrochloride, Biowet Puławy, Puławy, Poland)) and xylazine (8 mg/kg, hydrochloride, Biowet Puławy, Poland)) were injected i.p.
HPLC grade methanol, acetonitrile and reagent grade formic acid, hydrochloric acid, potassium dihydrogen phosphate, orthophosphoric acid, and sodium chloride were purchased from Merck (Darmstadt, Germany). Tissues (control blood and brain) were obtained from adult male Wistar rats anesthetized by i.p. injection of 50 mg/kg ketamine plus 8 mg/kg xylazine, and blood samples were collected in heparinized tubes from the heart. Blood samples were collected at 0 (predose), 15, 60, 240, and 1440 min after compound administration. The plasma was separated by centrifugation (1000× g, 10 min). Plasma and brain were stored at −80 °C pending analysis. The LC/ESI-MS/MS experiments were performed on a UPLC ACQUITY H-Class PLUS/Xevo TQD (Waters Corporation, Milford, MA, USA) triple-quadrupole mass spectrometer equipped with an electrospray (ESI) ionization interface. Data acquisition and processing were accomplished using MassLynx data collection and integration software. For the chromatographic and mass spectrometric conditions, and sample pretreatment, please see the Supplementary Materials.
Pharmacokinetic parameters were calculated by a noncompartmental approach from the average concentration values, using Phoenix WinNonlin software (Certara, Princeton, NJ 08540 USA). The first-order elimination rate constant (λz) was calculated by linear regression of log concentration versus time. The area under the mean plasma and brain concentration versus time curve (AUC0→t) was calculated from zero to the last concentration point using the linear trapezoidal rule:(1) AUC0→t=∑i=1nCi+Ci+1/2·(ti+1−ti) where Ci is the concentration of the compound.
The area under the first-moment curve (AUMC0→t) was estimated by calculation of the total area under the first-moment curve:(2) AUMC0→t=∑i=1n((ti·Ci+ti+1·Ci+1)/2)·(ti+1−ti) where ti is the […].
Mean residence time (MRT) was calculated as:(3) MRT=AUMC0→t/AUC0→t
Systemic clearance (Cl) was calculated as:(4) Cl=Div/AUC0→t
The volume of distribution at steady state (Vss) was calculated as:(5) Vss=Div⋅AUMC0→t/(AUC0→t )^2
The absolute bioavailability (F) of PQA-AZ4 and PQA-AZ6 after i.g. administration was calculated as:(6) F(%)=AUCi.g./AUCi.v.⋅Di.v./Di.g.⋅100 where Di.v. and Di.g. are i.v. and i.g. doses of the studied molecules, respectively.
1. Methods in pharmacokinetic studies
Instrumentation and operating conditions
The LC/ESI-MS/MS experiments were performed on a UPLC ACQUITY H-Class PLUS/Xevo
TQD (Waters Corporation, USA) triple-quadrupole mass spectrometer equipped with an electrospray
(ESI) ionization interface. Data acquisition and processing were accomplished using MassLynx data […]

5-HT1AR = system: 5-HT1AR; set-up: method as in PMID 35248836; conditions: cited from earlier work
[2] = chronic 1 mg/kg/day i.p., 21 days
[3] = brain, iv, 0.5 mg/kg, i.v. 0.5 mg/kg
[4] = brain, po, 2 mg/kg, i.g. 2 mg/kg
[5] = plasma, iv, 0.5 mg/kg, i.v. 0.5 mg/kg, plasma
[6] = plasma, po, 2 mg/kg, i.g. 2 mg/kg

half-life [1] [h] | Cmax ([1]; iv, i.v. 0.5 mg/kg, brain) [ng/g] | MRT ([1]; iv, i.v. 0.5 mg/kg, brain) [h] | AUC(0-t) ([1]; iv, i.v. 0.5 mg/kg, plasma) [ng·h/mL] | C0 ([1]; iv, i.v. 0.5 mg/kg, plasma) [ng/mL] | MRT ([1]; iv, i.v. 0.5 mg/kg, plasma) [h] | clearance ([1]; iv, i.v. 0.5 mg/kg, plasma) [mL/min/kg] | bioavailability ([1]; plasma, oral) [%] | Cmax ([1]; po, i.g. 2 mg/kg, brain) [ng/g] | MRT ([1]; po, i.g. 2 mg/kg, brain) [h] | AUC(0-t) ([1]; po, i.g. 2 mg/kg, plasma) [ng·h/mL] | Cmax ([1]; po, i.g. 2 mg/kg, plasma) [ng/mL] | MRT ([1]; po, i.g. 2 mg/kg, plasma) [h] | Tmax [1, 3] [h] | Tmax [1, 4] [h] | Kp ([1]; iv, 0.5 mg/kg, i.v. 0.5 mg/kg) | SMILES | effect on immobility in FST (rats) | Immobility time (rats) [s] | antidepressant-like activity in FST (rats; [2]) | IC50 (PDE10A) [µM] | other results
~1 | 113 | 7.4 | 93.6 | 102 | 0.742 | 85.2 | 38.4 | 342 | 12 | 144 | 99.5 | 1.11 | 0.25 | 0.25 | 8.6 | COc1cc2ncnc(N3CCC(CN4CCN(c5ccc(Cl)cc5)CC4)C3)c2cc1OC (stereo not shown) [PQA-AZ6, 4-(3-((4-(4-Chlorophenyl)piperazin-1-yl)methyl)pyrrolidin-1-yl)-6,7-dimethoxyquinazoline] | did not change the immobility | 255.4 ± 7.0 | showed antidepressant-like properties | 5.68 | decrease of immobility vs. control group in FST (rats; [2]): about 11%; Kp ([1]; po, 2 mg/kg, i.g. 2 mg/kg): 5.3; Vd [1, 5]: ~4.7 L/kg; Tmax [1, 6]: 0.25 h; Brain/Plasma ratio ([1]; i.g. 2 mg/kg): 5.29; AUC0→t ([1]; i.g. 2 mg/kg, brain): 45,623 ng·min/g; t0.5 ([1]; i.g. 2 mg/kg, brain): 1928 min; t0.5 ([1]; i.g. 2 mg/kg, plasma): 216.8 min; AUC0→t ([1]; i.v. 0.5 mg/kg, brain): 48,321 ng·min/g; t0.5 ([1]; i.v. 0.5 mg/kg, brain): 597 min; t0.5 ([1]; i.v. 0.5 mg/kg, plasma): 54.2 min; Functional profile at 5-HT1AR (5-HT1AR): partial agonists
~1 | 149 | 3.1 | 714 | 431 | 0.958 | 10.8 | 8.29 | 71.4 | 3.58 | 118 | 46.7 | 1.38 | 0.25 | 1 | 0.9 | COc1cccc(N2CCN(CC3CCN(c4ncnc5cc(OC)c(OC)cc45)C3)CC2)c1 (stereo not shown) [PQA-AZ4, 6,7-Dimethoxy-4-(3-((4-(3-methoxyphenyl)piperazin-1-yl)methyl)pyrrolidin-1-yl)quinazoline] | did not change the immobility | 244.8 ± 8.9 | inactive | 7.07 | bioavailability ([1]; plasma, po): 8.3%; Kp ([1]; po, 2 mg/kg, i.g. 2 mg/kg): 5.7; Vd [1, 5]: 0.8 L/kg; Tmax [1, 6]: ≤ 1 h; Brain/Plasma ratio ([1]; i.g. 2 mg/kg): 5.68; AUC0→t ([1]; i.g. 2 mg/kg, brain): 40,314 ng·min/g; t0.5 ([1]; i.g. 2 mg/kg, brain): 214 min; t0.5 ([1]; i.g. 2 mg/kg, plasma): 92 min; AUC0→t ([1]; i.v. 0.5 mg/kg, brain): 40,806 ng·min/g; t0.5 ([1]; i.v. 0.5 mg/kg, brain): 220 min; t0.5 ([1]; i.v. 0.5 mg/kg, plasma): 67.3 min; Functional profile at 5-HT1AR (5-HT1AR): partial agonists
